According to paper PMC9458453, “What is a supercoiling-sensitive gene? Insights from topoisomerase I inhibition in the Gram-negative bacterium Dickeya dadantii” (Nucleic Acids Research, 2022):

Key:
[1] = target: T1, topoisomerase I (topoI) (Dickeya dadantii, UniProt E0SBX6); assay: pUC18 plasmid relaxation assay on agarose gel with purified topoI; type: biochemical
T1 construct: gene topA; N-terminally 6xhis-tagged topoisomerase I

[2] = target: T2, topoisomerase I (topoI) (Escherichia coli, UniProt P06612); assay: plasmid relaxation assay on agarose gel with purified commercial topoI; type: biochemical
T2 construct: gene topA; commercial topoI (NEB)
T2 sequence (P06612 whole entry): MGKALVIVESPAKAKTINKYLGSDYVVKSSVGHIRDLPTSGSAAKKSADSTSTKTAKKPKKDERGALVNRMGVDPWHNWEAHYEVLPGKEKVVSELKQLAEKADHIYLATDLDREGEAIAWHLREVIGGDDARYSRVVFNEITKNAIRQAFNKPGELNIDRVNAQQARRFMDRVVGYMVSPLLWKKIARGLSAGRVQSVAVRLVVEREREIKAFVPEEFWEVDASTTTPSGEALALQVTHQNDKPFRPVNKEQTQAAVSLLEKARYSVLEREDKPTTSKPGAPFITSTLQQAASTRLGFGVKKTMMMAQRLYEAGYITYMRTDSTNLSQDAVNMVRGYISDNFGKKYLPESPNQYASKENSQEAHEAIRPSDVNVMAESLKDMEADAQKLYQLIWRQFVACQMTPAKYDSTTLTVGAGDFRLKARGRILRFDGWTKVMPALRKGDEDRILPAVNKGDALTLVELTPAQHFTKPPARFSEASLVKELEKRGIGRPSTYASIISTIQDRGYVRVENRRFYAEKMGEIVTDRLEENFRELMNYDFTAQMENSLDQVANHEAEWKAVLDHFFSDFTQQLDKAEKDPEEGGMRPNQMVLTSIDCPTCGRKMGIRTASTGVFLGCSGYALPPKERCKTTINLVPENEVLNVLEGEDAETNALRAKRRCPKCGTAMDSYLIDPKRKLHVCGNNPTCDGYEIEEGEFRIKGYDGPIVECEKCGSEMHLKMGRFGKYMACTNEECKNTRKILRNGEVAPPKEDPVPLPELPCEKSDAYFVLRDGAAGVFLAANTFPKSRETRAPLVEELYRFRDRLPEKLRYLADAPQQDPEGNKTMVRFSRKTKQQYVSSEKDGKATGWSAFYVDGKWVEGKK

T1 sequence (E0SBX6 entry or part of it): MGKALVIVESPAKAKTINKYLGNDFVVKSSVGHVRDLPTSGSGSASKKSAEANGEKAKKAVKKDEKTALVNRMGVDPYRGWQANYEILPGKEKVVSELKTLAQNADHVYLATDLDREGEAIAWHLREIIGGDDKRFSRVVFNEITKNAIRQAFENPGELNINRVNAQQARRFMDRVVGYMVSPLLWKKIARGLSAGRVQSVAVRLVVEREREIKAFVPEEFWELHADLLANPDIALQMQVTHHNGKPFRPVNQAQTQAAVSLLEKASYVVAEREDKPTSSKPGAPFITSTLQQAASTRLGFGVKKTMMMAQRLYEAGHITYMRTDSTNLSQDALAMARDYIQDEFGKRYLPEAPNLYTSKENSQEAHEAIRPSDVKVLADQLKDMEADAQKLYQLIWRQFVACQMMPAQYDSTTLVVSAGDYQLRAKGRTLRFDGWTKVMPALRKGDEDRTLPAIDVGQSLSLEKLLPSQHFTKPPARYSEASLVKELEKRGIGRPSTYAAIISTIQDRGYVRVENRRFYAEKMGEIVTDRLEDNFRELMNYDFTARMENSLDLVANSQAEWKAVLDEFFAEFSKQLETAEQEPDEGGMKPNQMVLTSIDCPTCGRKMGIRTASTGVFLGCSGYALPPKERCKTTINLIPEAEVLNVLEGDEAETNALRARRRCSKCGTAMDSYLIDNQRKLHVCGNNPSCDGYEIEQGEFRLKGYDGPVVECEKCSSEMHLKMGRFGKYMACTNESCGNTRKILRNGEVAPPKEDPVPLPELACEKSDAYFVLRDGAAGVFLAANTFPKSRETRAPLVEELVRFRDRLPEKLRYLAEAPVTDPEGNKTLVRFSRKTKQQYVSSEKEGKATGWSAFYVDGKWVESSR

CNCCc1cc2c(c3c1ccc1cc4c(cc13)OCO4)OCO2 [SCN, seconeolitsine]
IC50 [1]: 4 µM
IC50 [2]: ~7 µM
